Test results taken from patent US5091379A, “Topical antinflammatory compositions with minimal systemic absorption” (Du Pont Merck Pharmaceutical Company, priority 1989, dated 1992).
Several values for one entry are separate records, joined by “and”; a condition that tells them apart may be missing. Equal entries are not always repeated.

Tests used:
[1] = In vivo absorption: excretion of radioactivity in rat urine and feces; design: species or system Male Sprague-Dawley rats; conditions: for Percent of Dose Excreted in Feces / Percent of Dose Excreted in Urine / Percent of Dose Excreted, Total: IV 5 mg/kg
Method: Approximately 10 mg of 14C-2-phenylmethyl-1-naphthol and 4.99 g of unlabeled 2-phenylmethyl-1-naphthol were used in the preparation of a 100 g 5% ointment or cream. The ointment was a PEG-based ointment and the cream was an oil-in-water emulsion. The specific activities for the ointment and cream were 2.71 and 2.78 uCi/g, respectively. An IV dosing solution (2.5 mg/mL) was prepared prior to dose administration by dissolving radiolabeled 14C-2-phenylmethyl-1-naphthol and unlabeled compound (1:1.5 ratio) in a PEG 400/water (60/40 v/v) solution.
Male Sprague-Dawley rats weighing 240-300 g were used for the studies. Sixteen rats were shaved on the back one day prior to the treatment. Eight of the rats had the application site abraded by a diamond-tipped marker (2 parallel lines and 2 interceding lines). The abrasion penetrated only the stratum corneum, but not the dermis. A 0.5 g dose of 14C-2-phenylmethyl-1-naphthol ointment or cream was applied to an area of approximately 4 cm^2 on 4 nonabraded and 4 abraded rats. The treatment site was covered with gauze and occluded with a dental dam. It was further secured by micropore tape and a strip of adhesive elastoplast. Each rat was placed in an open metabolism cage. […] Four other rats weighing 270-320 g were given an intravenous dose.
In order to determine the percent of dose in the ointment or cream that was absorbed percutaneously into the systemic circulation, an IV dose of 14C-2-phenylmethyl-1-naphthol was given to rats. The total radioactivity excreted after the IV dose serves as a reference for evaluation of topical absorption. […] The reason for the low radioactivity recovery is unknown. The percutaneous absorption from the ointment was about 2% of the applied dose. On the other hand, absorption from the cream was much higher and was about 28% of the dose.

[2] = In vitro penetration through (inflammed) hairless mouse skin; assay type: in vitro ADME; conditions: Study I, 25 mg/0.1 ml acetone
Method: The acetone vehicles were allowed to dry. […] The donor chamber was sealed with parafilm.
Studies were performed in which skin inflammation was induced in hairless mice in vivo, and permeability of that skin was evaluated in vitro. The three studies differed in the methods of producing inflammation. A non-inflammed control was run for each. The formulations tested were the oil/water cream and PEG ointment containing excipients (See Table 2) as in the previous example. There was no difference between the control and inflammed skin in active compound flux in all studies and for all formulations, except study II with 5% cream. […] As with human skin, acetone and cream vehicles consistently gave higher skin penetration rates than the PEG ointment.

AA-induced edema = test: AA-induced ear edema, topical antiinflammatory activity; assay type: in vivo, Male CF1 mice; conditions: for % Inhibition: 3 h pretreatment
Method: The AA model was also used to evaluate and compare PEG ointment formulations containing 2-phenylmethyl-1-naphthol with oil/water cream formulations containing 2-phenylmethyl-1-naphthol. These comparisons are illustrated in Examples 5 to 7.
Male 18-20 gram CF1 mice were used in these experiments. AA was made up fresh daily in acetone at a concentration of about 100 mg/ml. 10 μl of the AA solution (1 mg AA) was applied to the inner surface of the ear to induce swelling. […] Control animals were pretreated about 3 hours before AA application with placebo vehicles (drug free ointment or cream) with 5 mg of vehicle applied to both ears. Drug-treated animals were pretreated about 3 hours before AA application with 5 mg of the vehicle containing active drug, applied to both ears. AA was applied to 1 ear of each mouse. One hour after AA challenge, the animals were euthanized by cervical dislocation and both ears were removed. 6 mm disks were then taken using a skin biopsy punch and weighed. Swelling was determined as the difference between the weights of the AA and vehicle treated ears. Percent inhibition of swelling was calculated as follows: [formula]
Table 7 summarizes the data for PEG ointment and oil/water cream formulations containing various concentrations of active compound. Each data point is the average of 2 experiments with 10 animals per treatment cell.

5-lipoxygenase = conditions: cited from earlier work
[3] = Hydrolysis of 2 to 3 in solution and during skin penetration; assay type: physicochemical

Structure (SMILES): Oc1c(Cc2ccccc2)ccc2ccccc12 [14C-1, 14C-2-phenylmethyl-1-naphthol]
- Percent of Dose Excreted in Feces ([1]; individual rats, 5 mg/kg): 38.86% and 38.32% and 40.39% and 37.91%
- Percent of Dose Excreted in Urine ([1]; individual rats, 5 mg/kg): 8.55% and 7.84% and 8.96% and 8.74%
- Percent of Dose Excreted, Total ([1]; individual rats, 5 mg/kg): 47.41% and 46.16% and 49.35% and 46.65%
- Percent of Dose Excreted in Feces ([1]; mean of 4 rats): 38.87%
- Percent of Dose Excreted in Urine ([1]; mean of 4 rats): 8.52%
- Percent of Dose Excreted, Total ([1]; mean of 4 rats): 47.39%
- percutaneous absorption ([1]; from PEG ointment, percent of applied dose): about 2%
- percutaneous absorption ([1]; from cream, percent of dose): about 28%
- detectable radioactivity in the urine ([1]; topical ointment or cream, daily collection): no detectable radioactivity was found in the urine

Structure (SMILES): Oc1c(Cc2ccccc2)ccc2ccccc12 [compound 1, 2-(phenylmethyl)-1-naphthol]
- Lag Time ([2]; AA inflammed skin): 13.8 ± 1.3 h
- Lag Time ([2]; control skin): 10.8 ± 1.7 h
- % Inhibition (AA-induced edema; PEG ointment, 0.5% 1): 15%
- % Inhibition (AA-induced edema; PEG ointment, 1% 1): 62%
- % Inhibition (AA-induced edema; PEG ointment, 5% 1): 70%
- % Inhibition (AA-induced edema; PEG ointment, 10% 1): 90%
- % Inhibition (AA-induced edema; cream, 0.5% 1): 26%
- % Inhibition (AA-induced edema; cream, 1% 1): 60%
- % Inhibition (AA-induced edema; cream, 5% 1): 86%
- % Inhibition (AA-induced edema; cream, 10% 1): 87%
- inhibiting the edema induced by topical arachidonic acid (AA-induced edema; mouse, in vivo): very potent in inhibiting the edema
- inhibition of 5-lipoxygenase (5-lipoxygenase): exceptionally potent inhibitors of 5-lipoxygenase

Structure (SMILES): CC(=O)Oc1c(Cc2ccccc2)ccc2c1ccn2C [compound 2, 1-methyl-4-acetoxy-5-phenylmethyl indole]
- hydrolysis [3]: hydrolyzes to 1-methyl-4-hydroxy-5-phenylmethyl indole (3)
